Measured values from US20060281813A1, “Methods of treating hyperproliferative cell disorders” (priority 2003, published 2006).
Where “and” joins values, the source holds several entries; their conditions need not be identical. Equal entries are not always repeated. Where two headings read alike, the source gives them in different places.

Tests used:
small cell lung cancer = assay: Example 8: small cell lung cancer patients with disease progression on IRESSA alone; type: in vivo, human; details: added to IRESSA about 250-500 mg per day; oral about 100 to 500 mg per day
[1] = system: cutaneous T-cell lymphoma; details: single patient, oral, with the VD analog calcitriol; cited from earlier work
[2] = system: F9 embryonal mouse teratocarcinoma cells; details: all-trans RA-treated, differentiating F9 cells, 18 hour period; cited from earlier work
[3] = cited from earlier work
[4] = cited from earlier work; for peak 1,25-dihydroxyvitamin D serum concentration: healthy volunteers
ER+ or ER− tumor lines = details: cited from earlier work
Xenopus laevis = Xenopus laevis system; cited from earlier work
[5] = system: non small cell lung cancer; assay: Example 2: patient with non small cell lung cancer; type: in vivo, human
Protocol: A patient suffering from non small cell lung cancer was treated with IRESSA® (250 mg per day) for two months. The disease progressed during the treatment and thae patient was continued on IRESSA® (250 mg per day) with daily dosage of 4-oxo-retinol (75 mg per day) for two months. The disease became stable and the patient continued taking IRESSA® (250 mg per day) for 4 more months without 4-oxo-retinol with a stale disease.

[6] = system: refractory/progressive lung cancer; details: single agent; cited from earlier work
lung cancer [7] = assay: Example 7: lung cancer patients with disease progression on IRESSA alone; type: in vivo, human; details: added to IRESSA, oral 100 mg/square meter, optionally calcitriol 0.1-1 mcg per day
[8] = system: breast cancer, prostate cancer or leukemia; assay: Example 4: patients with breast cancer, prostate cancer or leukemia; type: in vivo, human; details: oral 100 mg/square meter with oral IRESSA
lung cancer [9] = assay: Example 6: patients with lung cancer; type: in vivo, human; details: oral 100 mg/square meter with oral IRESSA
[10] = system: retinoid receptor subtype; details: competition with all-trans RA; cited from earlier work
[11] = system: advanced head and neck cancer; assay: Example 5: patients with advanced head and neck cancer; type: in vivo, human; details: oral 100 mg/square meter with oral IRESSA or intravenous C-225
Description: Current systemic chemotherapy regimens are unable to prolong survival of patients with advanced head and neck cancer.

colorectal cancer = details: cited from earlier work
[12] = 4 mcg per day for 4 days, postmenopausal women
[13] = up to 2.7 mcg/day for 7 to 15 days, normal volunteers
[14] = up to 32 mcg/day for 3 months, patients with osteopetrosis
[15] = tumors capable of producing 4-oxo-retinol
[16] = tumors that don't produce 4-oxo-retinol

## C=C(c1ccc(C(=O)O)cc1)c1cc2c(cc1C)C(C)(C)CCC2(C)C [bexarotene]
Small cell lung cancer
  disease course: stable disease or a reduced tumor burden

## COc1cc(C)c(/C=C/C(C)=C/C=C/C(C)=C/C(=O)O)c(C)c1C [acitretin]
[1]
  clinical response: complete remission

## CC1=C(/C=C/C(C)=C/C=C/C(C)=C/CO)C(C)(C)CCC1 [retinol, Retinol]
[2]
  share of total retinol metabolized to 4-hydroxy-retinol and then 4-oxo-retinol: 10-15%

## C=C1/C(=C\C=C2/CCC[C@]3(C)[C@@H]([C@H](C)CCCC(C)(C)O)CC[C@@H]23)C[C@@H](O)C[C@@H]1O [calcitriol]
[3]; [12]
  hypercalcemia: no clinically significant hypercalcemia
  patients with serum calcium above 10.8: Four of the 27
  urinary calcium excretion: increased
  urinary hydroxyproline excretion: no increase
[3]; given intermittently
  dose tolerated without hypercalcemia: ≤ 0.48 µg/kg
[3]; in vivo
  duration of hypercalcemic effect: 3 to 5 days
  time of maximal hypercalcemic effect: 10 h
[3]; single oral dose of 4 mcg, healthy volunteers
  serum calcium: no elevation
[3]; [13]
  calcium absorption and excretion: increased
  serum calcium: no significant elevations
[3]; up to 3 mcg/day for 6-12 days, low calcium diet
  patients with elevation in serum calcium: None of the patients
[3]; [14]
  hypercalcemia: no hypercalcemia
[4]; 2 mcg single oral dose
  peak 1,25-dihydroxyvitamin D serum concentration: 0.235 nM and 0.351 nM
[4]; in vivo
  serum half life: 3 to 6 h
  time to peak serum concentration: 2 h
[4]; single oral dose of 4 mcg
  peak 1,25-dihydroxyvitamin D serum concentration: 0.42 nM
[4]; up to 3 mcg/day for 6-12 days, normal volunteers
  stable 1,25-dihydroxyvitamin D serum levels: 0.184 to 0.235 nM
[4]; [14]
  peak of stable serum levels of 1,25-dihydroxyvitamin D: 2.32 nM

## CC1=C(/C=C/C(C)=C/C=C/C(C)=C/C(=O)O)C(C)(C)CCC1 [all-trans RA, all-trans-retinoic acid]
ER+ or ER− tumor lines; [15]
  growth inhibition: growth inhibitory
ER+ or ER− tumor lines; [16]
  growth inhibition: lack growth inhibitory effects
Xenopus laevis
  ED50, teratogenicity: ~100 nM

## COc1cc2ncnc(Nc3ccc(F)c(Cl)c3)c2cc1OCCCN1CCOCC1 [IRESSA®, gefitinib]
[5]; 250 mg per day alone for two months
  disease course: progressed
[5]; 250 mg per day for 4 more months without 4-oxo-retinol
  disease course: stale disease
[6]
  overall rate of response: 10-15%

## CC1=C(/C=C/C(C)=C/C=C/C(C)=C/C(=O)Nc2ccc(O)cc2)C(C)(C)CCC1 [N-(4-hydroxyphenyl)retinamide]
ER+ or ER− tumor lines; [15]
  growth inhibition: growth inhibitory
ER+ or ER− tumor lines; [16]
  growth inhibition: lack growth inhibitory effects

## CC1=C(/C=C/C(C)=C/C=C/C(C)=C/CO)C(C)(C)CCC1O (centres unmarked) [4-hydroxy-retinol]
Lung cancer [7]
  tumor burden: reduced tumor burden
[8]
  tumor burden versus IRESSA alone: reduced tumor burden
Lung cancer [9]
  tumor burden versus IRESSA alone: reduced tumor burden
[10]
  displacement of all-trans RA: Neither compound efficiently displaced all-trans RA
[11]
  survival rate versus IRESSA or C-225 alone: better survival rate

## CCc1c2c(nc3ccc(OC(=O)N4CCC(N5CCCCC5)CC4)cc13)-c1cc3c(c(=O)n1C2)COC(=O)[C@]3(O)CC [IRITONECAN®]
Colorectal cancer
  single-agent activity: significant single-agent activity
